Assay results reported in patent publication US20060122175A1, “Benzdioxane piperazine derivatives with a combination of affinity for dopamine-D2 receptors and serotonin reuptake sites” (SOLVAY PHARMACEUTICALS B.V., priority 2004, published 2006).
Counter-ions that a name gives are not always drawn.

What was measured:
dopamine-D2 receptors = molecular target: T1, dopamine-D2 receptors (Rattus norvegicus, UniProt P61169); experiment: In vitro affinity for dopamine-D2 receptors ([3H]-spiroperidol receptor binding assay); conditions: average values from three independent experiments
T1 construct: labels dopamine receptors in rat pituitary and brain; from tissue; host or cells: rat pituitary and brain (per the title of the cited method)
T1 sequence (P61169 whole entry): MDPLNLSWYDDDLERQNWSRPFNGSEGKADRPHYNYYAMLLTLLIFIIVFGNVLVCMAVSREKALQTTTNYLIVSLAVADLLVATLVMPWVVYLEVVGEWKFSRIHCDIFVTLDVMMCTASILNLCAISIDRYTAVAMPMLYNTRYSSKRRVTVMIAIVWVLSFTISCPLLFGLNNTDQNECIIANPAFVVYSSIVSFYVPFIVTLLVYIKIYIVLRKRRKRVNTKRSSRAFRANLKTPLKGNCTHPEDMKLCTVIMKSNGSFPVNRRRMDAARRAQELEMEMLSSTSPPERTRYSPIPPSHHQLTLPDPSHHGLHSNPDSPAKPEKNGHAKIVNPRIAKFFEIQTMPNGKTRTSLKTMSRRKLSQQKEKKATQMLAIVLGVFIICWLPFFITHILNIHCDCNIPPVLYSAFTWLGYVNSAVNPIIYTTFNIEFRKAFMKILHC
Procedure: The affinity of the compounds of the invention for dopamine-D2 receptors and serotonine reuptake sites was determined as described above. […] Pharmacokinetic, pharmacodynamic, and other considerations may alter the dose actually administered to a higher or lower value. The dosage expediently administered is 0.001-1000 mg/kg, preferably 0.1-100 mg/kg of patient's bodyweight.
(§1) The results in the table below were obtained according to the methods described above. Binding data are average values from three independent experiments.

dopamine D2 receptors = experiment: Antagonism of apomorphine-induced climbing behaviour in mice (APO-climb); conditions: Mus musculus, po, read-out: in vivo activity Dopamine-D2 APO-climb* ED50 mg/kg po
serotonin reuptake = experiment: Potentiation of 5-HTP induced behaviour in mice; conditions: Mus musculus, po, read-out: in vivo activity 5-HT reuptake 5-HTP** ED50 mg/kg po
Excerpt: The compounds show activity as antagonists at dopamine D2 receptors as they potentially antagonize apomorphine-induced climbing behaviour in mice (B. Costall et al., ‘Climbing behaviour induced by apomorphine in mice: a potential model for the detection of neuroleptic activity’, Eur. J. Pharmacol., 1978, 1, 39-50). The compounds also show activity as inhibitors of serotonin reuptake, as they potentiate 5-HTP induced behaviour in mice (B. L. Jacobs., ‘An animal behaviour model for studying central serotonergic synapses’, Life Sci., 1976, 19(6), 777-785). The compounds are active in therapeutic models sensitive to clinically relevant antipsychotics (e.g. the conditioned avoidance response; Van der Heyden & Bradford, Behav. Brain Res., 1988, 31:61-67) and antidepressants or anxiolytics (e.g. suppression of stress-induced vocalization; van der Poel et al., Psychopharmacology, 1989, 97: 147-148). In contrast to clinically relevant dopamine D2 receptor antagonists the described compounds have a low propensity to induce catalepsy in rodents and as such are likely to induce less extrapyramidal side effects than existing antipsychotic agents. The inhibitory activity of serotonin reuptake inherent in these compounds may be responsible for the therapeutic effects observed in behavioural models sensitive to either antidepressants or anxiolytics. The compounds can be used for the treatment of affections or diseases of the central nervous system caused by disturbances in either the dopaminergic or serotonergic systems, for example: aggression, anxiety disorders, autism, vertigo, depression, disturbances of cognition or memory, Parkinson's disease, and in particular schizophrenia and other psychotic disorders.

serotonin reuptake sites = molecular target: T2, serotonin reuptake sites (Rattus norvegicus, UniProt P31652); experiment: In vitro affinity for serotonin reuptake sites ([3H]-paroxetine receptor binding assay); conditions: average values from three independent experiments; read-out: in vitro affinity 5-HT reuptake binding Ki
T2 construct: from tissue; host or cells: rat cortical membranes (per the title of the cited method)
T2 sequence (P31652 whole entry): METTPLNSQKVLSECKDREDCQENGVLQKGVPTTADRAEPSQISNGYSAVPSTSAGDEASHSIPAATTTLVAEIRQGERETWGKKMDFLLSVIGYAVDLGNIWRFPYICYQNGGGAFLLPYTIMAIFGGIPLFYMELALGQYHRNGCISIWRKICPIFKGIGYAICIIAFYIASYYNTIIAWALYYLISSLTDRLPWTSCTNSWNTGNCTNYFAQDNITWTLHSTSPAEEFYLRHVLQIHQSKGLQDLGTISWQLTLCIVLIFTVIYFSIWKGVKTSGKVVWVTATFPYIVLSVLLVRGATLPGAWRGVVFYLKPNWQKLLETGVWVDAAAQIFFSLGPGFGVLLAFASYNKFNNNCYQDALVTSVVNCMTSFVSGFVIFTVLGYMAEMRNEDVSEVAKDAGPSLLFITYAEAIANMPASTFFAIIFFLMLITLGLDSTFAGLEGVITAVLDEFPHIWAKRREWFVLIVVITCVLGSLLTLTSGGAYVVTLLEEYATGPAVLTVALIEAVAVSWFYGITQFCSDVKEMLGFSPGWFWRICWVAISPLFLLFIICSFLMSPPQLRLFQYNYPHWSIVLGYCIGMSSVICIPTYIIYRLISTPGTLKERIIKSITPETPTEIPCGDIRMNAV
Procedure: The affinity of the compounds of the invention for dopamine-D2 receptors and serotonine reuptake sites was determined as described above. From the binding affinity measured for a given compound of formula (1), one can estimate a theoretical lowest effective dose. […] Converting that concentration to mg of compound per kg of patient yields a theoretical lowest effective dose, assuming ideal bioavailability. Pharmacokinetic, pharmacodynamic, and other considerations may alter the dose actually administered to a higher or lower value. The dosage expediently administered is 0.001-1000 mg/kg, preferably 0.1-100 mg/kg of patient's bodyweight.
as §1

Row | SMILES | melting point | Ki (dopamine-D2 receptors) [nM] | ED50 (serotonin reuptake) [mg/kg] | further results
1 | Fc1ccc2c(CCCN3CCN(c4cccc5c4OCCO5)CC3)c[nH]c2c1 (as salt: fumaric acid salt) [Compound 5f, 3-{3-[4-(2,3-Dihydro-benzo[1,4]dioxin-5-yl)-piperazin-1-yl]-propyl}-6-fluoro-1H-indole] | 205 to 206 °C |  |  | 
2 | Clc1ccc2[nH]cc(CCCN3CCN(c4cccc5c4OCCO5)CC3)c2c1 (as salt: fumaric acid salt) [Compound 5j, 3-{3-[4-(2,3-Dihydro-benzo[1,4]dioxin-5-yl)-piperazin-1-yl]-propyl}-5-chloro-1H-indole] | 61 to 63 °C |  |  | 
3 | Cc1ccc2[nH]cc(CCCN3CCN(c4cccc5c4OCCO5)CC3)c2c1 (as salt: fumaric acid salt) [Compound 5m, 3-{3-[4-(2,3-Dihydro-benzo[1,4]dioxin-5-yl)-piperazin-1-yl]-propyl}-5-methyl-1H-indole] | 215 to 217 °C (dec.) |  |  | 
4 | c1cc2c(c(N3CCN(Cc4c[nH]c5ccccc45)CC3)c1)OCCO2 [Compound 5a, 3-[4-(2,3-Dihydro-benzo[1,4]dioxin-5-yl)-piperazin-1-yl-methyl]-1H-indole] | 85 to 86 °C |  |  | 
5 | c1cc2c(c(N3CCN(CCCc4c[nH]c5ccccc45)CC3)c1)OCCO2 [Compound 5b, 3-{3-[4-(2,3-Dihydro-benzo[1,4]dioxin-5-yl)-piperazin-1-yl]-propyl}-1H-indole] | 150 to 152 °C | 21 ± 9.9 | 22 | ED50 (dopamine D2 receptors): 10 mg/kg
6 | c1cc2c(c(N3CCN(CCCCCc4c[nH]c5ccccc45)CC3)c1)OCCO2 [Compound 5c, 3-{5-[4-(2,3-Dihydro-benzo[1,4]dioxin-5-yl)-piperazin-1-yl]-pentyl}-1H-indole] |  | 9.1 ± 1.8 |  | 
7 | Fc1cccc2[nH]cc(CCCN3CCN(c4cccc5c4OCCO5)CC3)c12 [Compound 5d, 3-{3-[4-(2,3-Dihydro-benzo[1,4]dioxin-5-yl)-piperazin-1-yl]-propyl}-4-fluoro-1H-indole] | 207 to 208 °C | 8.1 ± 3.1 | 32 | ED50 (dopamine D2 receptors): 13 mg/kg
8 | Fc1ccc2[nH]cc(CCCN3CCN(c4cccc5c4OCCO5)CC3)c2c1 [Compound 5e, 3-{3-[4-(2,3-Dihydro-benzo[1,4]dioxin-5-yl)-piperazin-1-yl]-propyl}-5-fluoro-1H-indole] |  | 19 ± 3 | 2 | 
9 | Fc1ccc2c(CCCN3CCN(c4cccc5c4OCCO5)CC3)c[nH]c2c1 [Compound 5f, 3-{3-[4-(2,3-Dihydro-benzo[1,4]dioxin-5-yl)-piperazin-1-yl]-propyl}-6-fluoro-1H-indole] |  |  | 30 | ED50 (dopamine D2 receptors): 9 mg/kg
10 | Fc1cccc2c(CCCN3CCN(c4cccc5c4OCCO5)CC3)c[nH]c12 [Compound 5g, 3-{3-[4-(2,3-Dihydro-benzo[1,4]dioxin-5-yl)-piperazin-1-yl]-propyl}-7-fluoro-1H-indole] |  | 10.6 ± 4 | 28.4 | 
11 | COc1ccc2[nH]cc(CCCN3CCN(c4cccc5c4OCCO5)CC3)c2c1 [Compound 5h, 3-{3-[4-(2,3-Dihydro-benzo[1,4]dioxin-5-yl)-piperazin-1-yl]-propyl}-5-methoxy-1H-indole] |  | 5 ± 4 |  | 
12 | Clc1cccc2[nH]cc(CCCN3CCN(c4cccc5c4OCCO5)CC3)c12 [Compound 5i, 3-{3-[4-(2,3-Dihydro-benzo[1,4]dioxin-5-yl)-piperazin-1-yl]-propyl}-4-chloro-1H-indole] |  | 24 ± 3 |  | 
13 | Clc1ccc2[nH]cc(CCCN3CCN(c4cccc5c4OCCO5)CC3)c2c1 [Compound 5j, 3-{3-[4-(2,3-Dihydro-benzo[1,4]dioxin-5-yl)-piperazin-1-yl]-propyl}-5-chloro-1H-indole] |  | 31.6 ± 16 |  | Ki (serotonin reuptake sites): 1.4 ± 0.7 nM
14 | Clc1ccc2c(CCCN3CCN(c4cccc5c4OCCO5)CC3)c[nH]c2c1 [Compound 5k, 3-{3-[4-(2,3-Dihydro-benzo[1,4]dioxin-5-yl)-piperazin-1-yl]-propyl}-6-chloro-1H-indole] |  | 2.1 ± 1 | 86 | ED50 (dopamine D2 receptors): 4.5 mg/kg
15 | Clc1cccc2c(CCCN3CCN(c4cccc5c4OCCO5)CC3)c[nH]c12 [Compound 5l, 3-{3-[4-(2,3-Dihydro-benzo[1,4]dioxin-5-yl)-piperazin-1-yl]-propyl}-7-chloro-1H-indole] |  | 15.5 ± 5.4 |  | 
16 | Cc1ccc2[nH]cc(CCCN3CCN(c4cccc5c4OCCO5)CC3)c2c1 [Compound 5m, 3-{3-[4-(2,3-Dihydro-benzo[1,4]dioxin-5-yl)-piperazin-1-yl]-propyl}-5-methyl-1H-indole] |  |  |  | Ki (serotonin reuptake sites): 1.3 ± 0.9 nM
17 | Cc1cccc2c(CCCN3CCN(c4cccc5c4OCCO5)CC3)c[nH]c12 [Compound 5n, 3-{3-[4-(2,3-Dihydro-benzo[1,4]dioxin-5-yl)-piperazin-1-yl]-propyl}-7-methyl-1H-indole] |  | 15.9 ± 4.7 |  | 
18 | c1cc2c(c(N3CCN(CCCc4c[nH]c5ccccc45)CC3)c1)CCCO2 [Compound 14, 3-[3-(4-chroman-5-yl-piperazine-1-yl)-propyl]-1H-indole] |  | 20.3 ± 2.7 |  | 
